Results taken from patent publication US20020045780A1, “Biologically active spermidine analogues, pharmaceutical compositions and methods of treatment” (priority 1997, published 2002).
Where two headings read alike, the source gives them in different places.

Key:
L1210 cells [1] = experiment: Metabolic transformation of polyamine analogues by L1210 cells; format: in vitro ADME, murine; settings: 48 hours
Procedure: The cells were washed twice with cold RPMI-1640, and the pellet was treated with 0.6 N HClO4 (1 ml/10^7 cells). Polyamine contents of the perchloric acid extracts were quantitated by HPLC of the DANSYL derivatives [Bergeron et al, J. Med. Chem., Vol. 37, supra].

SSAT = settings: MALME-3 cells; cited from earlier work
L1210 cells [2] = settings: 48 hours, cited from earlier work; for Put, corresponding tetraamine (in parentheses) / Spd, corresponding tetraamine (in parentheses) / Spm, corresponding tetraamine (in parentheses): % of untreated control; for Analogue, corresponding tetraamine (in parentheses): intracellular amount
[3] = system: spermidine/spermine acetyltransferase (SSAT); settings: L1210, 2 μM at 48 hours (tetraamine analogues); cited from earlier work
[4] = system: S-adenosylmethionine decarboxylase (AdoMetDC); settings: cited from earlier work; for AdoMetDC activity, corresponding tetraamine (in parentheses): L1210, 1 μM at 6 hours
L1210 cells [5] = settings: cited from earlier work
[6] = target: polyamine transport apparatus; settings: cited from earlier work; for Ki: inhibition of spermidine transport, L1210, read-out: Ki, corresponding tetraamine (in parentheses)
[7] = system: ornithine decarboxylase (ODC); settings: cited from earlier work; for ODC activity, corresponding tetraamine (in parentheses): L1210, 1 μM at 4 hours
[8] = Acute toxicity in mice (single i.p. dose); format: in vivo; settings: female, CD-1, mouse, in vivo, ip
Procedure: (§1) In the current study, the acute toxicity of six analogues and the chronic toxicity of two triamines were measured (Table 7). The value of all polyamine LD50s are shown in both mg/kg and mmol/kg for comparison. […] The animals were scored two hours after administration of the drug. It is clear that the acute LD50s for triamine analogues are approximately twice the acute LD50s for the corresponding tetraamine analogues.
(§2) Acute and chronic toxicities were assessed in 10-12 week old CD-1 female mice from Harlan Sprague-Dawley. For acute toxicities, the polyamine analogues were administered in a single i.p. injection to groups of five or six animals at each dose. The animals were scored two hours after administration of the dose. All survivors were further observed for 10 days to assess late onset of toxicity from the single acute dose. In the chronic toxicity regimen, mice were administered polyamine analogue in three i.p. doses per day (t.i.d.) for six days, for a total of eighteen doses per animal. Appetite, weight and overall appearance were monitored daily. […] At least three test groups of 5-6 animals each, representing three different dose levels, were evaluated for each analogue tested. These dose levels were chosen so that at least two groups presented with lethalities, one with a high fraction of lethalities (>0.50, but <1.00).

mice [9] = experiment: Acute toxicity in mice (single i.p. dose); format: in vivo
Procedure: as §1, §2

mice [10] = settings: cited from earlier work
[11] = system: S-adenosylmethionine decarboxylase (AdoMetDC); experiment: AdoMetDC activity in treated L1210 cells; format: cell-based, murine; settings: L1210, 1 μM at 6 hours
How it was run: (§3)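 L1210 cells treated with triamines; ODC activity measured at 4 h and AdoMetDC at 6 h as ^14CO2 released from [^14C]-carboxyl-labeled L-ornithine (ODC) or S-adenosyl-L-methionine (AdoMetDC). Untreated cells served as controls and DEHSPM-treated cells as positive controls.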

[12] = system: spermidine/spermine acetyltransferase (SSAT); experiment: SSAT activity in treated L1210 cells; format: cell-based, murine; settings: L1210, 10 μM at 48 hours (triamine analogues)
From the text: Spermidine/spermine N^1-acetyltransferase activity was based on quantitation of [^14C]-N^1-acetylspermidine formed by acetylation of SPD with [^14C] acetyl coenzyme A according to the method of Libby et al [Biochem. Pharmacol., Vol. 38, supra]. Cells treated with DENSPM were positive controls.

[13] = system: ornithine decarboxylase (ODC); experiment: ODC activity in treated L1210 cells; format: cell-based, murine; settings: L1210, 1 μM at 4 hours
How it was run: as §3

[14] = system: polyamine transport apparatus; experiment: Competitive uptake determination: inhibition of [3H]spermidine transport into L1210 cells; format: cell-based, murine; settings: analogue inhibition of spermidine transport
How it was run: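 Analogues competed with [3H]spermidine for uptake into L1210 cells. Values are Ki, derived from Lineweaver–Burk analysis as competitive inhibition with respect to spermidine.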

laboratory animals = settings: early studies in laboratory animals; cited from earlier work
L1210 cells [15] = experiment: L1210 growth inhibition, IC50 determination; format: cell-based, murine; settings: Mus musculus
Procedure: Murine L1210 leukemia cells (ATCC CCL 219) were maintained in logarithmic growth in RPMI-1640 medium containing 10% fetal calf serum or a semi-synthetic equivalent, NuSerum, 2% HEPES-MOPS buffer and 1 mM aminoguanidine.

L1210 cells [16] = experiment: Polyamine pool analysis in L1210 cells; format: cell-based, murine; settings: Mus musculus, L1210, 48 h, % of untreated control
How it was run: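 Cells were exposed to each analogue for 48 h at two concentrations. Washed pellets were extracted with 0.6 N HClO4 (1 ml/10^7 cells), and polyamines were quantified by HPLC of dansyl derivatives.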

[17] = L1210, 48 hour exposure, read-out: IC50 48 hour, corresponding tetraamine (in parentheses)
[18] = L1210, 96 hour exposure, read-out: IC50 96 hour, corresponding tetraamine (in parentheses)
[19] = female, CD-1, mouse, in vivo, 600 mg/kg

Structure (SMILES): CCNCCCNCCCNCCCNCC [DENSPM, N^1,N^11-diethylnorspermine]
- Parent drug as % of total drug in the cell (L1210 cells [1]; 500 μM analogue): 95.3%
- Parent drug in L1210 cells (L1210 cells [1]; 500 μM analogue): 2440 pmols/10^6
- SSAT up-regulation (SSAT): 1200 fold
- Put, corresponding tetraamine (in parentheses) (L1210 cells [2]; 10 μM): (30) %
- Spd, corresponding tetraamine (in parentheses) (L1210 cells [2]; 10 μM): (14) %
- Spm, corresponding tetraamine (in parentheses) (L1210 cells [2]; 10 μM): (31) %
- Analogue, corresponding tetraamine (in parentheses) (L1210 cells [2]; 10 μM): (1.59) nmol/10^6 cells
- Analogue, corresponding tetraamine (in parentheses) (L1210 cells [2]; 100 μM): (2.44) nmol/10^6 cells
- SSAT activity, corresponding tetraamine (in parentheses) [3]: 1500% of untreated control
- AdoMetDC activity, corresponding tetraamine (in parentheses) [4]: 42% of untreated control
- IC50 (L1210 cells [5]; [17]): > 100000 nM
- IC50 (L1210 cells [5]; [18]): 2000 nM
- Ki [6]: 17000 nM
- Ki relative to those of DESPM and DEHSPM ([6]; polyamine transport system): over 10 times

Structure (SMILES): CCNCCCNCCCCNCCCNCC [DESPM, N^1,N^12-diethylspermine]
- SSAT up-regulation (SSAT): 250 fold
- SSAT activity, corresponding tetraamine (in parentheses) [3]: 460% of untreated control
- Time at which reduction in ODC activity plateaued ([7]; previous studies): 4 h
- LD50 at 2 h [8]: 842 µmol/kg
- Animals died within seven days (mice [9]; [19]): 5/5
- Death within the initial 2 hours (mice [9]; [19]): no death
- AdoMetDC activity, corresponding tetraamine (in parentheses) [4]: 28% of untreated control
- Time at which reduction in AdoMetDC activity plateaued ([4]; previous studies): 6 h
- IC50 (L1210 cells [5]; [17]): 30000 nM
- IC50 (L1210 cells [5]; [18]): 180 nM
- Ki [6]: 1600 nM

Structure (SMILES): CCNCCCCNCCCCCNCCCCNCC [DE(4,5,4)]
- Put, corresponding tetraamine (in parentheses) (L1210 cells [2]; 0.3 μM): (44) %
- Spd, corresponding tetraamine (in parentheses) (L1210 cells [2]; 0.3 μM): (61) %
- Spm, corresponding tetraamine (in parentheses) (L1210 cells [2]; 0.3 μM): (70) %
- Analogue, corresponding tetraamine (in parentheses) (L1210 cells [2]; 0.3 μM): (0.26) nmol/10^6 cells
- SSAT activity, corresponding tetraamine (in parentheses) [3]: 120 (120) percent of untreated control
- Chronic LD50 (tetraamines) (mice [10]; mice, i.p. t.i.d. × 6 days): 0.104 mmol/kg/day
- Chronic LD50 (tetraamines) (mice [10]; mouse, in vivo, ip): 48 mg/kg-day
- ODC activity, corresponding tetraamine (in parentheses) [7]: 20% of untreated control
- LD50 at 2 h ([8]; mice, single dose i.p., scored two hours after dose, read-out: Acute LD50): 638 µmol/kg
- Acute LD50 (mice [9]; mice, single dose i.p., scored two hours after dose, hydrochloride salts): 285 mg/kg
- IC50 (L1210 cells [5]; [17]): 300 nM
- IC50 (L1210 cells [5]; [18]): 35 nM
- Ki [6]: 6000 nM

Structure (SMILES): NCCCCNCCCN [SPD, spermidine]
- AdoMetDC activity, percent of untreated control [11]: 43% of untreated control
- SSAT activity, percent of untreated control [12]: 160% of untreated control
- ODC activity, percent of untreated control [13]: 16% of untreated control
- Ki [14]: 2200 nM
- Nephrotoxicity relative to spermine (laboratory animals): approximately one-twentieth as nephrotoxic as spermine
- IC50 (L1210 cells [15]; L1210, 48 h, L1210, 48 hour exposure, read-out: IC50 48 hour): > 100000 nM
- IC50 (L1210 cells [15]; L1210, 96 h, L1210, 96 hour exposure, read-out: IC50 96 hour): > 100000 nM
- activity at 100 µM (L1210 cells [16]; read-out: Put): 0%
- activity at 100 µM (L1210 cells [16]; read-out: Spd): 117%
- activity at 100 µM (L1210 cells [16]; read-out: Spm): 118%
- activity at 500 µM (L1210 cells [16]; read-out: Put): 0%
- activity at 500 µM (L1210 cells [16]; read-out: Spd): 145%
- activity at 500 µM (L1210 cells [16]; read-out: Spm): 108%

Structure (SMILES): CCNCCCCNCCCCNCCCCNCC [DEHSPM, N^1,N^14-diethylhomospermine]
- N-Monodealkylation (result in words) (L1210 cells [1]; 100 μM analogue): no N-deethylation
- Parent drug as % of total drug in the cell (L1210 cells [1]; 100 μM analogue): 100%
- Parent drug in L1210 cells (L1210 cells [1]; 100 μM analogue): 4215 pmols/10^6
- SSAT up-regulation (SSAT): 30 fold
- Put, corresponding tetraamine (in parentheses) (L1210 cells [2]; 10 μM): (0) %
- Spd, corresponding tetraamine (in parentheses) (L1210 cells [2]; 10 μM): (0) %
- Spm, corresponding tetraamine (in parentheses) (L1210 cells [2]; 10 μM): (61) %
- Analogue, corresponding tetraamine (in parentheses) (L1210 cells [2]; 10 μM): (2.94) nmol/10^6 cells
- SSAT activity, corresponding tetraamine (in parentheses) [3]: 110% of untreated control
- ODC activity, corresponding tetraamine (in parentheses) [7]: 7% of untreated control
- IC50 (L1210 cells [5]; [17]): 200 nM
- IC50 (L1210 cells [5]; [18]): 70 nM
- Ki [6]: 1400 nM
